Data published in ChEMBL document CHEMBL1255467, “Comparative in vitro antimicrobial activities of torezolid (TR-700), the active moiety of a new oxazolidinone, torezolid phosphate (TR-701), determination of tentative disk diffusion interpretive criteria, and quality control ranges” (2010).

Columns and labels:
Streptococcus pneumoniae [1] = experiment: Antimicrobial activity against Streptococcus pneumoniae by broth dilution method; format: functional; conditions: Streptococcus pneumoniae
Enterococcus faecalis [2] = experiment: Antimicrobial activity against vancomycin-susceptible Enterococcus faecalis by broth dilution method; format: functional; conditions: Enterococcus faecalis
Streptococcus pneumoniae [3] = experiment: Antimicrobial activity against penicillin-intermediate Streptococcus pneumoniae by broth dilution method; format: functional; conditions: Streptococcus pneumoniae
Moraxella catarrhalis = experiment: Antimicrobial activity against Moraxella catarrhalis by broth dilution method; format: functional
Staphylococcus aureus [4] = experiment: Antimicrobial activity against Staphylococcus aureus by broth dilution method; format: functional; conditions: Staphylococcus aureus
Haemophilus influenzae [5] = experiment: Antimicrobial activity against Haemophilus influenzae by broth dilution method; format: functional; conditions: Haemophilus influenzae
Staphylococcus aureus [6] = experiment: Antimicrobial activity against linezolid-resistant Staphylococcus aureus by broth dilution method; format: functional
Staphylococcus sp. [7] = experiment: Antimicrobial activity against methicillin-susceptible coagulase-negative Staphylococcus by broth dilution method; format: functional; conditions: Staphylococcus sp.
Enterococcus sp. = experiment: Antimicrobial activity against Enterococcus by broth dilution method; format: functional; conditions: Enterococcus sp.
Haemophilus influenzae [8] = experiment: Antimicrobial activity against beta-lactamase positive Haemophilus influenzae by broth dilution method; format: functional; conditions: Haemophilus influenzae
Staphylococcus sp. [9] = experiment: Antimicrobial activity against Staphylococcus sp. by broth dilution method; format: functional; conditions: Staphylococcus sp.
Staphylococcus aureus [10] = experiment: Antimicrobial activity against vancomycin-nonsusceptible Staphylococcus aureus by broth dilution method; format: functional; conditions: Staphylococcus aureus
Listeria monocytogenes = experiment: Antimicrobial activity against Listeria monocytogenes by broth dilution method; format: functional
Streptococcus pneumoniae [11] = experiment: Antimicrobial activity against penicillin-susceptible Streptococcus pneumoniae by broth dilution method; format: functional; conditions: Streptococcus pneumoniae
Corynebacterium jeikeium = experiment: Antimicrobial activity against Corynebacterium jeikeium by broth dilution method; format: functional
Staphylococcus aureus [12] = experiment: Antimicrobial activity against methicillin-susceptible Staphylococcus aureus by broth dilution method; format: functional; conditions: Staphylococcus aureus
Enterococcus faecium [13] = experiment: Antimicrobial activity against vancomycin-susceptible Enterococcus faecium by broth dilution method; format: functional; conditions: Enterococcus faecium
Haemophilus influenzae [14] = experiment: Antimicrobial activity against beta-lactamase negative Haemophilus influenzae by broth dilution method; format: functional; conditions: Haemophilus influenzae
Streptococcus sp = experiment: Antimicrobial activity against streptococcal sp. by broth dilution method; conditions: Streptococcus sp.
Haemophilus influenzae [15] = experiment: Antimicrobial activity against ampicillin-nonsusceptible beta-lactamase negative Haemophilus influenzae by broth dilution method; format: functional; conditions: Haemophilus influenzae
Streptococcus viridans = experiment: Antimicrobial activity against Streptococcus viridans by broth dilution method; format: functional
Enterococcus faecium [16] = experiment: Antimicrobial activity against vancomycin-resistant Enterococcus faecium by broth dilution method; format: functional
Staphylococcus aureus [17] = experiment: Antimicrobial activity against methicillin-resistant Staphylococcus aureus by broth dilution method; format: functional; conditions: Staphylococcus aureus
Staphylococcus sp. [18] = experiment: Antimicrobial activity against methicillin-resistant coagulase-negative Staphylococcus by broth dilution method; format: functional
Streptococcus pneumoniae [19] = experiment: Antimicrobial activity against penicillin-resistant Streptococcus pneumoniae by broth dilution method; format: functional
Enterococcus faecalis [20] = experiment: Antimicrobial activity against vancomycin-resistant Enterococcus faecalis by broth dilution method; format: functional

Compound `C[C@H]1COc2c(N3CCN(C)CC3)c(F)cc3c(=O)c(C(=O)O)cn1c23.C[C@H]1COc2c(N3CCN(C)CC3)c(F)cc3c(=O)c(C(=O)O)cn1c23.O` [LEVOFLOXACIN] has an MIC50 (Streptococcus pneumoniae [1]) of 1 µg/mL, an MIC90 (Streptococcus pneumoniae [1]) of 1 µg/mL and an MIC50 (Enterococcus faecalis [2]) of 1 µg/mL. For the same compound, the MIC90 (Enterococcus faecalis [2]) was > 16 µg/mL, the MIC50 (Streptococcus pneumoniae [3]) was 1 µg/mL and the MIC90 (Streptococcus pneumoniae [3]) was 1 µg/mL. It also gave an MIC50 (Moraxella catarrhalis) of 0.06 µg/mL, an MIC90 (Moraxella catarrhalis) of 0.06 µg/mL and an MIC50 (Staphylococcus aureus [4]) of 4 µg/mL. The MIC90 (Staphylococcus aureus [4]) was > 16 µg/mL, the MIC (Haemophilus influenzae [5]) was 0.12 µg/mL and the MIC50 (Haemophilus influenzae [5]) was 0.12 µg/mL. For the same compound, the MIC90 (Haemophilus influenzae [5]) was 0.12 µg/mL, the MIC50 (Staphylococcus aureus [6]) was > 16 µg/mL and the MIC50 (Staphylococcus sp. [7]) was 0.25 µg/mL. For the same compound, the MIC90 (Staphylococcus sp. [7]) was 0.5 µg/mL, the MIC50 (Enterococcus sp.) was > 16 µg/mL and the MIC90 (Enterococcus sp.) was > 16 µg/mL. It also gave an MIC (Haemophilus influenzae [8]) of 0.12 µg/mL, an MIC50 (Haemophilus influenzae [8]) of 0.12 µg/mL and an MIC90 (Haemophilus influenzae [8]; read-out: MIC90) of 0.12 µg/mL. For the same compound, the MIC50 (Staphylococcus sp. [9]) was 0.5 µg/mL, the MIC90 (Staphylococcus sp. [9]) was > 16 µg/mL and the MIC50 (Staphylococcus aureus [10]) was 16 µg/mL. The MIC90 (Staphylococcus aureus [10]) was > 16 µg/mL, the MIC (Listeria monocytogenes) was 1 µg/mL and the MIC50 (Listeria monocytogenes) was 1 µg/mL. It also gave an MIC90 (Listeria monocytogenes) of 1 µg/mL, an MIC50 (Streptococcus pneumoniae [11]) of 1 µg/mL and an MIC90 (Streptococcus pneumoniae [11]) of 1 µg/mL. The MIC (Corynebacterium jeikeium) was > 16 µg/mL, the MIC50 (Corynebacterium jeikeium) was > 16 µg/mL and the MIC90 (Corynebacterium jeikeium) was > 16 µg/mL. For the same compound, the MIC50 (Staphylococcus aureus [12]) was 0.25 µg/mL, the MIC90 (Staphylococcus aureus [12]) was 4 µg/mL and the MIC50 (Enterococcus faecium [13]) was 4 µg/mL. The MIC90 (Enterococcus faecium [13]) was > 16 µg/mL, the MIC (Haemophilus influenzae [14]) was 0.12 µg/mL and the MIC50 (Haemophilus influenzae [14]) was 0.12 µg/mL. It also gave an MIC90 (Haemophilus influenzae [14]) of 0.12 µg/mL, an MIC50 (Streptococcus sp) of 1 µg/mL and an MIC90 (Streptococcus sp) of 1 µg/mL. The MIC (Haemophilus influenzae [15]) was 0.12 µg/mL, the MIC50 (Haemophilus influenzae [15]) was 0.12 µg/mL and the MIC90 (Haemophilus influenzae [15]) was 0.12 µg/mL. The MIC50 (Streptococcus viridans) was 1 µg/mL, the MIC90 (Streptococcus viridans) was 2 µg/mL and the MIC50 (Enterococcus faecium [16]) was > 16 µg/mL. The MIC50 (Staphylococcus aureus [17]) was 8 µg/mL, the MIC50 (Staphylococcus sp. [18]) was 8 µg/mL and the MIC50 (Streptococcus pneumoniae [19]) was 1 µg/mL. For the same compound, the MIC90 (Streptococcus pneumoniae [19]) was 1 µg/mL and the MIC50 (Enterococcus faecalis [20]) was > 16 µg/mL.
